One series has as its system Pseudomonas aeruginosa. Details: method as in PMID 30842436. Conditions: cited from earlier work.
Series [1] has as its system Staphylococcus pseudintermedius. Conditions: cited from earlier work; for S.p. MIC: Staphylococcus pseudintermedius, Table S5, in µM.
In a further series the test system is Staphylococcus aureus. Also on record: method as in PMID 30842436. Conditions: cited from earlier work.
Series [2] can be described thus: in vitro. The format is cell-based, rat (Sprague–Dawley). Conditions: Sprague-Dawley, rat. A digest of the protocol: (§1)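 Washed heparinized erythrocytes (~5 × 10^8 RBC/mL in PBS) incubated 1 h at 37 °C with peptides in serial 1:1 dilutions (150 to 1.2 µM final). Haemoglobin release read at 405 nm in supernatant; % haemolysis relative to 1% Triton X-100 (100%) and PBS diluent (0%).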

The subject of a further series is rat erythrocytes. Briefly: in vitro. Conditions: for IC10 haemolysis: rat erythrocytes; for IC50: red cells of rat. The format is cell-based, rat (Sprague–Dawley). A digest of the protocol:
as §1

Series [3] can be described thus: in vitro. The format is cell-based, bovine. Conditions: bovine. A digest of the protocol: as §1
Series [4] in a line: in vitro. It is filed as cell-based, human. Conditions: human. Summed up:
as §1

Series [5] has as its system human erythrocytes. Put plainly: in vitro. The format is cell-based. Conditions: for IC10 haemolysis: human erythrocytes; for IC50: red cells of human. A digest of the protocol: as §1
Series [6] in a line: in vitro. Conditions: dog. The format is cell-based, dog. A digest of the protocol:
as §1

The test system of a further series is canine erythrocytes. Briefly: in vitro. It is filed as cell-based, dog. Conditions: for IC10 haemolysis: canine erythrocytes; for IC50: red cells of canine. Summed up: as §1
The next series concerns HepG2 cells. The format is cell-based, human. Conditions: 1 h. How it is done: (§2) An immortalised human keratinocyte (HaCaT) cell line (Gift from David Gram Naym at Bispebjerg Hospital, Denmark), a human liver cancer cell line (HepG2; ATCC HB-8065) and a human epithelial cervical cancer cell line (HeLa; ATCC CCL-2) were cultured to ∼90% confluence after 21–25 h of growth under standard conditions (5% CO2 at 37 °C). Cells were cultured in Dulbecco’s Modified Eagle’s Medium supplemented with 10% (v/v) fetal bovine serum (FBS). All culture media were supplemented with penicillin (100 IU/mL) and streptomycin (100 μg/mL). All cell media and supplements were obtained from Sigma-Aldrich (St. Louis, MO, United States). The 96-well plates were supplied by Corning Costar (Sigma-Aldrich, Brøndby, Denmark). Cell viability assessment was performed on cell monolayers grown to ∼90% confluence in 96-well plates by using the MTS/PMS assay as previously described. Briefly, the adhered cells were washed with PBS solution (37 °C) (ThermoFisher Scientific, Roskilde) and exposed for 1 h at 37 °C to 100 μL of peptides dissolved in the medium also used for culturing of the cell line (at concentrations in the range 0–1,000 μg/mL). The cells were subsequently washed twice with 37 °C PBS and then 100 μL of an MTS/PMS solution in media, consisting of 240 μg/mL MTS (Promega, Madison, WI, United States) and 2.4 mg/mL PMS (Promega, Madison, WI, United States), was added to the cells, which then were incubated for 1 h at 37 °C protected from light. A plate reader (SpectraMax i3X; Molecular devices, San Jose, CA) was used to measure the absorbance at 492 nm. The relative viability was calculated by using 0.2% (w/v) sodium dodecyl sulfate (SDS) as the positive control, while cells exposed to medium without test compound were used as the negative control.

In the next series the test system is HaCaT cells. The format is cell-based, human. Conditions: 1 h. On the procedure: as §2
For series [7] the following is noted: at in vivo dosing concentrations.
Procedure: (§3) To further address the actual correlation of the in vitro observations to an in vivo situation, three compounds were selected for animal studies. […] Peptides where chosen to include compounds with ranging antibacterial activity, residue composition, hydrophobicity and in vitro mammalian toxicity, deliberately excluding compounds too hydrophobic and too toxic (50% > lysis at 150 µM in vitro against rats and human). […] All the compounds were tested at the same concentrations 0, 0.01 and 1.0 mg/kg rat.
(§4) The compounds were formulated in sterile PBS (tablets, Medicago, Sweden), sonicated and sterile filtered through a Millex-GV filter (0.22 µm pore size, Ø 13 mm, Merck) before use. […] Doses were 0 (vehicle control), 0.01 and 1.0 mg/kg rat).
Series [8] can be described thus: Dose-ranging intravenous toxicity study in rats. The format is in vivo, rat (WistarHan). Conditions: rat. How it is done: All animals were injected with a single dose of 0.5 mL (2 mL/kg body weight) and it was slowly administered over 2 min and 10 s. Shorter cationic tripeptides[4] and synthetic AMPs[72] have previously been evaluated employing the intravenous route. It was an interesting observation that the animals survived the systemic tail vein injection seemingly unaffected. This observation is in contrast to related synAMPs investigated as intravenous antibiotics which induced acute toxicity and paralysis at higher concentrations.

In a further series the test system is HeLa cells. It is filed as cell-based, human. Conditions: 1 h. How it is done:
as §2

Series [9] concerns human erythrocytes. Conditions: cited from earlier work.
A further series relates to bovine erythrocytes. Briefly: in vitro. It is filed as cell-based. Conditions: bovine erythrocytes. Summed up: as §1
A short description of another series: physchem. Conditions: PBS.

≈ marks a conversion by molar mass, not a printed value. Square brackets hold non-standard residues; d marks the D form. Peptide text beside a SMILES is read from it. N(1-naphthylmethyl)Gly = O=C(O)CNCc1cccc2ccccc12; Nphe = O=C(O)CNCc1ccccc1; NBuGly = CCCCNCC(=O)O

Procedure for physchem: as §3, §4

Turning to `CCCCN(CC(=O)N[C@@H](CCCCN)C(=O)N[C@@H](CCCCN)C(=O)N[C@@H](CCCCN)C(N)=O)C(=O)CN(Cc1cccc2ccccc12)C(=O)CN(Cc1ccccc1)C(=O)CNCc1cccc2ccccc12` [Compound 2, (N1-Nal)Gly-(N-Phe)Gly-(N1-Nal)Gly-(N-Bu)Gly-Lys-Lys-Lys] (H-[N(1-naphthylmethyl)Gly][Nphe][N(1-naphthylmethyl)Gly][NBuGly]KKK-NH2), in the series on Pseudomonas aeruginosa, the “MIC against Pseudomonas aeruginosa” value is recorded as 32 µg/mL (≈ 30.3 µM). The “S.p. MIC” value in series [1] is reported as 7.6 µM. Moreover, the “MIC against Staphylococcus pseudintermedius” value in series [1] is reported as 8 µg/mL (≈ 7.57 µM). For the same compound, the “MIC against Staphylococcus aureus” value in the series on Staphylococcus aureus is given as 16 µg/mL (≈ 15.1 µM). The hemolysis at 1 h, 150 µM in the series “in vitro [2]” was 100%; in “in vitro [3]” it was under 8%; in the series “in vitro [4]”, 78.1%; in “in vitro [6]” it was 100%. The IC10 haemolysis with rat erythrocytes turned out to be 20.3 µM; with human erythrocytes [5], 11.2 µM; in the series with canine erythrocytes, 12.8 µM. The IC50 came to 35.1 µM with rat erythrocytes; 40 µM in the series with human erythrocytes [5]; 32 µM with canine erythrocytes; 355 µM with HepG2 cells; 89 µM in the series with HaCaT cells. Also, the “Haemolytic activity (in words)” value in the series with human erythrocytes [5] was “amongst the top five most haemolytic compounds”.

As for `CC(C)C[C@@H](NC(=O)[C@@H](Cc1ccc2ccccc2c1)NC(=O)[C@@H](Cc1ccccc1)NC(=O)[C@H](N)Cc1ccc2ccccc2c1)C(=O)N[C@@H](CCCCN)C(=O)N[C@@H](CCCCN)C(=O)N[C@@H](CCCCN)C(N)=O` [Compound 4, (2-Nal)Ala-Phe-(2-Nal)Ala-Leu-Lys-Lys-Lys] (HELM PEPTIDE1{[N[C@H](Cc1ccc2ccccc2c1)C(=O)[*:2]].[dF].[O=C([C@@H](Cc1ccc2ccccc2c1)N[*:1])[*:2]].[dL].K.K.K.[am]}$$$$V2.0), the “MIC against Pseudomonas aeruginosa” value with Pseudomonas aeruginosa is on record as over 64 µg/mL. Also, in [1], the “S.p. MIC” value was 15.1 µM. In series [1], the “MIC against Staphylococcus pseudintermedius” value is 16 µg/mL (≈ 15.1 µM). Further, in the series on Staphylococcus aureus, the “MIC against Staphylococcus aureus” value was 32 µg/mL (≈ 30.3 µM). Further, the hemolysis at 1 h, 150 µM in the series “in vitro [2]”, in “in vitro [3]”, in “in vitro [4]” and in the series “in vitro [6]” was under 8% throughout. Also, the IC10 haemolysis in the series on rat erythrocytes, in the series on human erythrocytes [5] and with canine erythrocytes was over 150 µM each time. Moreover, the IC50 in the series with rat erythrocytes was over 150 µM; in the series with human erythrocytes [5] it was over 150 µM; with canine erythrocytes, over 150 µM; with HaCaT cells, 433 µM; with HeLa cells, 783 µM. Further, the “Solubility in PBS (in words)” value in series [7] was “freely soluble”. In [8] (i.v. tail vein, high dose (1 mg/mL), two animals, after initial 30 min recovery), the “Clinical signs of discomfort after injection” value was “less mobility and reactivity to stimuli”. For the same compound, in series [8] (i.v., high dose, 3 h), the “Release of haemoglobin in vivo” value is reported as “slightly elevated release of haemoglobin”. For the same compound, the “Adverse effects at 8 h after injection” value in [8] (i.v., high dose, 8 h) is recorded as “no adverse effects were observed”. In series [8] (i.v., plasma 24 h), the Bilirubin concentration entry is recorded as “no elevated concentration was observed”. Besides, in [8] (i.v., plasma 24 h, high dose for 4), the “AST and ALT concentration” value was “slight increase of both AST and ALT”.

With `CC(C)C[C@H](NC(=O)[C@H](CCCCN)NC(=O)[C@H](CCCCN)NC(=O)[C@@H](N)CCCCN)C(=O)N[C@@H](Cc1cccc2ccccc12)C(=O)N[C@@H](Cc1ccccc1)C(=O)N[C@@H](Cc1cccc2ccccc12)C(N)=O` [Compound 7, Lys-Lys-Lys-Leu-(1-Nal)Ala-Phe(1-Nal)Ala] (HELM PEPTIDE1{K.K.K.L.[O=C([C@H](Cc1cccc2ccccc12)N[*:1])[*:2]].F.[O=C([C@H](Cc1cccc2ccccc12)N[*:1])[*:2]].[am]}$$$$V2.0), in the series on Pseudomonas aeruginosa, the “MIC against Pseudomonas aeruginosa” value is reported as 16 µg/mL (≈ 15.1 µM). For the same compound, in [1], the “MIC against Staphylococcus pseudintermedius” value is listed as 8 µg/mL (≈ 7.57 µM). Further, the “MIC against Staphylococcus aureus” value in the series on Staphylococcus aureus is 16 µg/mL (≈ 15.1 µM). Moreover, the hemolysis at 1 h, 150 µM amounted to 54.3% in “in vitro [2]”, 16% in “in vitro [3]”, 83.8% in “in vitro [4]” and 102% in the series “in vitro [6]”. Further, the “Haemolysis at 80 µM (in words)” value in the series on rat erythrocytes, with human erythrocytes [5] and in the series with canine erythrocytes was “near total haemolysis” each time. Also, the IC10 haemolysis with rat erythrocytes is 76.9 µM; in the series with bovine erythrocytes, 118.8 µM; with human erythrocytes [5], 35.2 µM; with canine erythrocytes it was 32.7 µM. Also, the IC50 with rat erythrocytes was determined as 143 µM; in the series on human erythrocytes [5], 82.6 µM; in the series with canine erythrocytes, 47.2 µM. Further, the “Previously reported haemolytic activity against human erythrocytes (in words)” value in the series with human erythrocytes [9] was “high in vitro haemolytic activity”.

Consider `CC(C)C[C@@H](NC(=O)[C@H](CCCCN)NC(=O)[C@H](CCCCN)NC(=O)[C@@H](N)CCCCN)C(=O)N[C@H](Cc1cccc2ccccc12)C(=O)N[C@H](Cc1ccccc1)C(=O)N[C@H](Cc1cccc2ccccc12)C(N)=O` [Compound 11, Lys-Lys-Lys-Leu-(1-Nal)Ala-Phe-(1-Nal)Ala] (HELM PEPTIDE1{K.K.K.[dL].[O=C([C@@H](Cc1cccc2ccccc12)N[*:1])[*:2]].[dF].[O=C([C@@H](Cc1cccc2ccccc12)N[*:1])[*:2]].[am]}$$$$V2.0), for which the “MIC against Pseudomonas aeruginosa” value in the series with Pseudomonas aeruginosa is 8 µg/mL (≈ 7.57 µM). This compound registered a solubility in “physchem” of 1000 µg/mL (≈ 947 µM). Moreover, in series [1], the “S.p. MIC” value was 1.9 µM. Moreover, the “MIC against Staphylococcus pseudintermedius” value in [1] is 2 µg/mL (≈ 1.89 µM). Moreover, in the series with Staphylococcus aureus, the “MIC against Staphylococcus aureus” value is reported as 8 µg/mL (≈ 7.57 µM). The hemolysis at 1 h, 150 µM in the series “in vitro [2]” is 11.3%; in the series “in vitro [3]”, 17.4%; in the series “in vitro [4]”, 33.3%; in “in vitro [6]”, 40.7%. For the same compound, the IC10 haemolysis in the series with rat erythrocytes came out at 128.2 µM; with bovine erythrocytes, 89.2 µM; in the series with human erythrocytes [5], 32.8 µM; in the series on canine erythrocytes, 30.4 µM. The IC50 with rat erythrocytes was over 150 µM; with human erythrocytes [5] it was over 150 µM; in the series with canine erythrocytes, over 150 µM; in the series with HepG2 cells, 233 µM; in the series on HaCaT cells, 517 µM; in the series on HeLa cells, 233 µM. The “Solubility in PBS (in words)” value in series [7] is “required mild heating and sonication at the highest concentration”. The “Maximal serum concentration (calculated from dose)” value in [8] (1 mg/mL in PBS injected, assuming 17 mL blood volume for a 250 g rat) is 15 µM. The “Whole blood haemolysis in vivo” value in series [8] (in vivo, iv) is given as “not observed in vivo”.
